Values joined by “and” are separate entries in the source; they are usually repeats but may differ in a detail not shown here. Equal values may be shown once.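 All cell lines were grown in 96-well plates and treated with compound for 48 hours. The concentration for 50% growth inhibition is given as GI50. TGI marks complete inhibition of growth.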

Test systems include MCF7 breast; MALME-3M melanoma; ACHN renal; HT29 colon; SNB-75 CNS; SF-539 CNS; HS 578T breast; OVCAR-8 ovarian; MDA-MB-231 breast; EKVX NSCLC.
What all share (experiment): NCI anticancer screen, dose series, 48 h

For the molecule `CCCN(Cc1ccc(F)cc1)c1ccc(CO)c(Cl)c1`, the GI50 with MCF7 breast is 0.375 µM; in the experiment with MALME-3M melanoma it was 14.1 µM; with ACHN renal, 9.98 µM; in the experiment with HT29 colon it was 4.78 µM; with SNB-75 CNS it was 10.6 µM; in the experiment on SF-539 CNS, 15.3 µM. Further, the GI50 was 14.8 µM with HS 578T breast, 11.5 µM in the experiment with OVCAR-8 ovarian and 13 µM with MDA-MB-231 breast. In addition, the TGI in the experiment with MCF7 breast stood at 12.9 µM; in the experiment with MALME-3M melanoma, 28.6 µM; in the experiment on ACHN renal, 22.8 µM; in the experiment on HT29 colon, 16.4 µM; with SNB-75 CNS it was 22.7 µM; in the experiment with SF-539 CNS, 29 µM. In addition, the TGI in the experiment on HS 578T breast worked out at 37.6 µM; in the experiment with OVCAR-8 ovarian, 25.8 µM; in the experiment on MDA-MB-231 breast, 27.3 µM.
With `CCc1ccc(NCc2cc(OC)c(OC)c(OC)c2)cc1`, the TGI was 24.8 µM in the experiment with MCF7 breast; 30.8 µM and 35.6 µM with MALME-3M melanoma; 66.7 µM and 77.4 µM with ACHN renal; > 96.1 µM and 84.3 µM in the experiment on EKVX NSCLC; 1.72 µM and 1.39 µM in the experiment on HT29 colon; above 100 µM in the experiment on SNB-75 CNS. Besides, the TGI was 1.02 µM and 0.814 µM with SF-539 CNS; above 100 µM in the experiment on HS 578T breast; 43.6 µM and 48.1 µM in the experiment with OVCAR-8 ovarian; above 100 µM in the experiment on MDA-MB-231 breast. In addition, the GI50 with SNB-75 CNS was 0.387 µM and 0.882 µM; in the experiment with SF-539 CNS, 0.296 µM and 0.107 µM; in the experiment with OVCAR-8 ovarian it was 0.687 µM and 1.45 µM; with MDA-MB-231 breast it was 1.27 µM.
Turning to `COc1ccc(Cn2nc(-c3cc(OC)c(OC)c(OC)c3)c3c2CCc2cnoc2-3)cc1OC`, the GI50 in the experiment on MCF7 breast is 3.45 µM; in the experiment on MALME-3M melanoma it was 14.8 µM; in the experiment with ACHN renal, 6.12 µM; with HT29 colon it was 3.8 µM; in the experiment with SNB-75 CNS, 1.39 µM; in the experiment on SF-539 CNS, 3.11 µM. In addition, the GI50 with HS 578T breast was 2.22 µM; in the experiment on OVCAR-8 ovarian, 19.6 µM; with MDA-MB-231 breast, 8 µM. In addition, the TGI in the experiment on MCF7 breast is 18.3 µM; in the experiment on MALME-3M melanoma, above 100 µM; with ACHN renal, above 100 µM; in the experiment with HT29 colon, above 100 µM; with SNB-75 CNS, 5.64 µM; with SF-539 CNS, 36.1 µM. The TGI in the experiment on HS 578T breast is 15.2 µM; in the experiment with OVCAR-8 ovarian, above 100 µM; with MDA-MB-231 breast, above 100 µM.
On to `CC12CCC=CC1CCC1C2CCC2(C)C(c3ccc(=O)oc3)CCC12O` (centres undefined), for which the GI50 was 0.0766 µM with MCF7 breast; 0.0423 µM with MALME-3M melanoma; 0.0297 µM in the experiment on ACHN renal; 0.0636 µM in the experiment on EKVX NSCLC; 0.0516 µM in the experiment on HT29 colon; 0.0282 µM in the experiment with SNB-75 CNS. Further, the GI50 was 0.0531 µM with SF-539 CNS, 0.0292 µM in the experiment with HS 578T breast, 0.0999 µM with OVCAR-8 ovarian and 0.365 µM in the experiment on MDA-MB-231 breast. Also, the TGI with MCF7 breast was determined as 1.18 µM; with MALME-3M melanoma, 0.204 µM; with ACHN renal it was 0.128 µM; in the experiment on EKVX NSCLC it was 0.193 µM; in the experiment on HT29 colon it was 0.801 µM; in the experiment with SNB-75 CNS it was 0.164 µM. Also, the TGI with SF-539 CNS was determined as 0.18 µM; in the experiment with HS 578T breast, 0.308 µM; with OVCAR-8 ovarian it was 0.501 µM; with MDA-MB-231 breast, 2.57 µM.
Regarding `COc1cc(Cn2cc3c(c2)-c2oncc2CC3)cc(OC)c1OC`, the GI50 with MCF7 breast is 0.0324 µM; with MALME-3M melanoma it was 0.0254 µM; with ACHN renal, 0.134 µM; in the experiment on EKVX NSCLC, 0.0467 µM; with HT29 colon it was 0.0339 µM; in the experiment with SF-539 CNS, 0.0237 µM. Besides, the GI50 in the experiment with HS 578T breast was 0.0306 µM; with OVCAR-8 ovarian, 0.0548 µM; in the experiment with MDA-MB-231 breast, 0.0601 µM. In addition, the TGI is above 100 µM in the experiment on MCF7 breast; 30.3 µM in the experiment on MALME-3M melanoma; above 100 µM in the experiment on ACHN renal; above 65.7 µM with EKVX NSCLC; above 100 µM in the experiment on HT29 colon; 0.0657 µM with SF-539 CNS. The TGI with HS 578T breast is above 51.3 µM; in the experiment on OVCAR-8 ovarian, above 100 µM; in the experiment with MDA-MB-231 breast, above 100 µM.
Regarding `COc1cc2nc(Cl)nc(Nc3cccc(C(=O)/C=C/c4ccccc4)c3)c2cc1OC`, the GI50 is 1.81 µM in the experiment with MCF7 breast; 3.51 µM in the experiment on ACHN renal; above 33.7 µM in the experiment on EKVX NSCLC; 4.39 µM in the experiment on HT29 colon; 2.06 µM in the experiment with SNB-75 CNS; 3.82 µM with SF-539 CNS. The values for the GI50 with HS 578T breast, in the experiment with OVCAR-8 ovarian and in the experiment with MDA-MB-231 breast were 4.19 µM, 4.99 µM and 6.4 µM, respectively. Besides, the TGI was above 100 µM in the experiment on MCF7 breast; above 100 µM with ACHN renal; above 100 µM in the experiment on EKVX NSCLC; above 100 µM in the experiment with HT29 colon; 8.61 µM in the experiment on SNB-75 CNS; 19.2 µM in the experiment on SF-539 CNS. Moreover, the TGI with HS 578T breast was above 64.1 µM; in the experiment with OVCAR-8 ovarian, above 100 µM; in the experiment on MDA-MB-231 breast, above 92.4 µM.
For the molecule `OCC1OC(n2ccc3c2ncn2ncnc32)C(O)C1O` (centres undefined), the GI50 with MCF7 breast was 0.183 µM; in the experiment with MALME-3M melanoma, 29 µM; with ACHN renal, 0.719 µM; with HT29 colon it was 0.444 µM; in the experiment with SNB-75 CNS, 4.2 µM; in the experiment with SF-539 CNS, 2.13 µM. The results for the GI50 in the experiment on HS 578T breast, in the experiment with OVCAR-8 ovarian and in the experiment with MDA-MB-231 breast were 6.46 µM, 0.392 µM and 1.52 µM, respectively. The TGI in the experiment on MCF7 breast was 20.4 µM; in the experiment on MALME-3M melanoma, above 100 µM; with ACHN renal, above 100 µM; in the experiment on HT29 colon it was above 100 µM; in the experiment on SNB-75 CNS, 68.7 µM; in the experiment on SF-539 CNS it was 57.3 µM. The values for the TGI in the experiment on HS 578T breast, with OVCAR-8 ovarian and with MDA-MB-231 breast were 85.9 µM, 5.68 µM and above 100 µM, respectively.
`O=S(=O)(c1ccc(NC(=S)NCc2cccnc2)cc1)N1CCCCC1`: the GI50 was 12.7 µM with MCF7 breast; 84.9 µM in the experiment on MALME-3M melanoma; 29.3 µM in the experiment on ACHN renal; 90.5 µM in the experiment with HT29 colon; 25.6 µM in the experiment with SNB-75 CNS; 0.446 µM in the experiment on SF-539 CNS. The GI50 in the experiment with HS 578T breast was 8.65 µM; in the experiment on OVCAR-8 ovarian, 0.0991 µM; in the experiment with MDA-MB-231 breast it was 26.4 µM. Moreover, the TGI in the experiment on MCF7 breast, with MALME-3M melanoma, in the experiment with ACHN renal, with HT29 colon, in the experiment on SNB-75 CNS and in the experiment with SF-539 CNS was above 100 µM each time. For the same molecule, the TGI in the experiment on HS 578T breast, with OVCAR-8 ovarian and with MDA-MB-231 breast was above 100 µM throughout.
Take `Cn1c(=O)c2[nH]c(/N=N/N3CCN(CCO)CC3)nc2n(C)c1=O`: the TGI in the experiment with MCF7 breast, with MALME-3M melanoma, in the experiment on ACHN renal, in the experiment with EKVX NSCLC, in the experiment with HT29 colon and in the experiment on SF-539 CNS was above 100 µM throughout. For the same molecule, the TGI in the experiment on HS 578T breast, in the experiment with OVCAR-8 ovarian and in the experiment on MDA-MB-231 breast was above 100 µM throughout.
Take `CC1(C)CCC2(C(=O)OC3OC(CO)C(O)C(O)C3O)CC[C@]3(C)C(=CCC4C5(C)CC[C@H](OC6OC(C(=O)O)C(O)C(O)C6O)C(C)(C)C5CCC43C)C2C1` (some centres undefined): the GI50 was 1.6 µM with MCF7 breast; 6.3 µM with ACHN renal; 3.39 µM in the experiment on EKVX NSCLC; 2.07 µM in the experiment on HT29 colon; 1.62 µM with HS 578T breast; 4.28 µM in the experiment on OVCAR-8 ovarian. Besides, in the experiment with MDA-MB-231 breast, the GI50 is 1.15 µM. In addition, the TGI in the experiment on MCF7 breast was above 50 µM; in the experiment on ACHN renal, 12.6 µM; with EKVX NSCLC, 36.6 µM; in the experiment with HT29 colon it was above 50 µM; in the experiment with HS 578T breast it was 4.51 µM; in the experiment with OVCAR-8 ovarian it was 18.1 µM. In the experiment on MDA-MB-231 breast, this molecule had a TGI of 2.76 µM.
With `Nc1ncnc2c1ccn2C1OC2COP(=O)(O)OC2C1O` (centres undefined), the TGI is above 100 µM with MCF7 breast; 1.41 µM in the experiment with MALME-3M melanoma; 14.2 µM with ACHN renal; 57.7 µM in the experiment on EKVX NSCLC; 11.7 µM in the experiment on HT29 colon; 20.2 µM in the experiment on SF-539 CNS. In addition, the TGI with HS 578T breast is above 31 µM; with OVCAR-8 ovarian it was 7.94 µM; in the experiment with MDA-MB-231 breast it was 12.2 µM.
As for `O=C1C(Cl)=C(N/N=c2/[nH][nH]/c(=N/NC3=C(Cl)C(=O)c4ccccc4C3=O)c3ccccc23)C(=O)c2ccccc21`, the GI50 in the experiment with MCF7 breast is 12.3 µM; with ACHN renal, 12.7 µM; with HT29 colon, 24.9 µM; in the experiment with SNB-75 CNS, 1.49 µM; in the experiment with SF-539 CNS it was 15.6 µM; with HS 578T breast it was 13.5 µM. Also, the GI50 with OVCAR-8 ovarian is 15.4 µM; with MDA-MB-231 breast, 12 µM. Moreover, the TGI with MCF7 breast stood at 38.4 µM; in the experiment on ACHN renal, 28.2 µM; in the experiment with HT29 colon it was 53.6 µM; in the experiment with SNB-75 CNS, 15.3 µM; in the experiment on SF-539 CNS, 31.7 µM; with HS 578T breast, 66.3 µM. Further, the TGI in the experiment with OVCAR-8 ovarian turned out to be 35 µM; in the experiment with MDA-MB-231 breast it was 28.2 µM.
For the molecule `CN(C)CCCNC(=O)c1cc(NC(=O)CCNS(=O)(=O)c2ccc3c(c2)C(=O)c2ccccc2C3=O)cn1C`, the GI50 in the experiment on MCF7 breast, in the experiment with EKVX NSCLC, in the experiment on HT29 colon, in the experiment with SF-539 CNS, in the experiment on HS 578T breast and in the experiment with OVCAR-8 ovarian was above 100 µM in each case. Also, in the experiment with MDA-MB-231 breast, the GI50 was above 100 µM. Also, the TGI in the experiment with MCF7 breast, in the experiment with EKVX NSCLC, in the experiment with HT29 colon, with SF-539 CNS, in the experiment on HS 578T breast and in the experiment with OVCAR-8 ovarian was above 100 µM in each case. In the experiment on MDA-MB-231 breast, the TGI was above 100 µM.

For the origin of these results see PubChem BioAssay (NCI).
